Assay results taken from the NIST ThermoML archive (doi:10.1016/j.jct.2017.12.023).

Assay: xn = mol fraction of the nth substance listed
Settings: 100 kPa, Liquid; for viscosity: Concentric cylinders viscometry; for mass density: Vibrating tube method

CCOS(=O)(=O)[O-].CCn1cc[n+](C)c1 [1-ethyl-3-methylimidazolium ethyl sulfate] + CN1CCCC1=O
Settings	mass density, 288.15 K [kg/m3]	mass density, 293.15 K [kg/m3]	mass density, 298.15 K [kg/m3]	mass density, 303.15 K [kg/m3]	mass density, 308.15 K [kg/m3]	viscosity, 288.15 K [mPa·s]	viscosity, 293.15 K [mPa·s]	viscosity, 298.15 K [mPa·s]	viscosity, 303.15 K [mPa·s]	viscosity, 308.15 K [mPa·s]
x1 = 0.1009	1079.2	1074.95	1070.72	1066.49	1062.28	3.992	3.554	3.21	2.908	2.649
x1 = 0.2012	1111.89	1107.79	1103.71	1099.65	1095.59	7.313	6.338	5.637	5.01	4.488
x1 = 0.3021	1138.72	1134.75	1130.79	1126.85	1122.93	12.42	10.51	9.181	8.026	7.071
x1 = 0.4012	1160.76	1156.89	1153.04	1149.22	1145.41	19.71	16.36	14.03	12.06	10.47
x1 = 0.4973	1178.79	1175.02	1171.26	1167.52	1163.8	29.14	23.79	20.08	17	14.56
x1 = 0.596	1194.97	1191.28	1187.6	1183.95	1180.31	42.09	33.7	27.95	23.38	19.81
x1 = 0.6998	1209.56	1205.95	1202.35	1198.77	1195.21	59.32	46.73	38.08	31.46	26.22
x1 = 0.7961	1221.74	1218.2	1214.66	1211.15	1207.65	79	61.57	49.4	40.33	33.3
x1 = 0.8821	1231.55	1228.07	1224.59	1221.13	1217.69	104.25	80.25	63.39	51.1	41.58
x1 = 1	1243.07	1239.66	1236.27	1232.87	1229.49	155.55	117.88	91.26	72.1	57.98
